Measurements: PMC5666424, “Marine-Derived 2-Aminoimidazolone Alkaloids. Leucettamine B-Related Polyandrocarpamines Inhibit Mammalian and Protozoan DYRK & CLK Kinases” (Marine Drugs, 2017)

How the values were obtained:
Test in all cases: KinomeScan
Type in all cases: binding
Settings in all cases: 1 μM
DMPK2 = target: T1, DMPK2 (Homo sapiens, UniProt Q6DT37)
T1 construct: purchased DiscoverX (KINOMEscan)

EPHA2 = target: T2, EPHA2 (Homo sapiens, UniProt P29317)
T2 construct: purchased DiscoverX (KINOMEscan)

EGFR(L858R) = target: T3, EGFR(L858R) (Homo sapiens, UniProt P00533, L858R)
T3 construct: purchased DiscoverX (KINOMEscan)

EGFR(G719C) = target: T4, EGFR(G719C) (Homo sapiens, UniProt P00533, G719C)
T4 construct: purchased DiscoverX (KINOMEscan)

MARK2 = target: T5, MARK2 (Homo sapiens, UniProt Q7KZI7)
T5 construct: purchased DiscoverX (KINOMEscan)

TNNI3K = target: T6, TNNI3K (Homo sapiens, UniProt Q59H18)
T6 construct: purchased DiscoverX (KINOMEscan)

MINK = target: T7, MINK (Homo sapiens, UniProt Q8N4C8)
T7 construct: purchased DiscoverX (KINOMEscan)

BMX = target: T8, BMX (Homo sapiens, UniProt P51813)
T8 construct: purchased DiscoverX (KINOMEscan)

FYN = target: T9, FYN (Homo sapiens, UniProt P06241)
T9 construct: purchased DiscoverX (KINOMEscan)

FGR = target: T10, FGR (Homo sapiens, UniProt P09769)
T10 construct: purchased DiscoverX (KINOMEscan)

MAPKAPK2 = target: T11, MAPKAPK2 (Homo sapiens, UniProt P49137)
T11 construct: purchased DiscoverX (KINOMEscan)

ERBB2 = target: T12, ERBB2 (Homo sapiens, UniProt P04626)
T12 construct: purchased DiscoverX (KINOMEscan)

[1] = target: T13, ABL1(T315I)-nonphosphorylated (Homo sapiens, UniProt P00519, T315I)
T13 construct: purchased DiscoverX (KINOMEscan)

ASK1 = target: T14, ASK1 (Homo sapiens, UniProt Q99683)
T14 construct: purchased DiscoverX (KINOMEscan)

MKNK1 = target: T15, MKNK1 (Homo sapiens, UniProt Q9BUB5)
T15 construct: purchased DiscoverX (KINOMEscan)

MERTK = target: T16, MERTK (Homo sapiens, UniProt Q12866)
T16 construct: purchased DiscoverX (KINOMEscan)

KIT(L576P) = target: T17, KIT(L576P) (Homo sapiens, UniProt P10721, L576P)
T17 construct: purchased DiscoverX (KINOMEscan)

[2] = target: T18, ABL1(T315I)-phosphorylated (Homo sapiens, UniProt P00519, T315I)
T18 construct: purchased DiscoverX (KINOMEscan)

[3] = target: T19, ABL1(F317I)-phosphorylated (Homo sapiens, UniProt P00519, F317I)
T19 construct: purchased DiscoverX (KINOMEscan)

BMPR1A = target: T20, BMPR1A (Homo sapiens, UniProt P36894)
T20 construct: purchased DiscoverX (KINOMEscan)

ERBB3 = target: T21, ERBB3 (Homo sapiens, UniProt P21860)
T21 construct: purchased DiscoverX (KINOMEscan)

SIK2 = target: T22, SIK2 (Homo sapiens, UniProt Q9H0K1)
T22 construct: purchased DiscoverX (KINOMEscan)

STK36 = target: T23, STK36 (Homo sapiens, UniProt Q9NRP7)
T23 construct: purchased DiscoverX (KINOMEscan)

ERK1 = target: T24, ERK1 (Homo sapiens, UniProt P27361)
T24 construct: purchased DiscoverX (KINOMEscan)

TESK1 = target: T25, TESK1 (Homo sapiens, UniProt Q15569)
T25 construct: purchased DiscoverX (KINOMEscan)

MEK4 = target: T26, MEK4 (Homo sapiens, UniProt P45985)
T26 construct: purchased DiscoverX (KINOMEscan)

DMPK = target: T27, DMPK (Homo sapiens, UniProt Q09013)
T27 construct: purchased DiscoverX (KINOMEscan)

ABL1-phosphorylated = target: T28, ABL1-phosphorylated (Homo sapiens, UniProt P00519)
T28 construct: purchased DiscoverX (KINOMEscan)

[4] = target: T29, EGFR(L747-E749del, A750P) (Homo sapiens, UniProt P00533, A750P/DEL747-749)
T29 construct: purchased DiscoverX (KINOMEscan)

MAP4K4 = target: T30, MAP4K4 (Homo sapiens, UniProt O95819)
T30 construct: purchased DiscoverX (KINOMEscan)

FLT3(D835Y) = target: T31, FLT3(D835Y) (Homo sapiens, UniProt P36888, D835Y)
T31 construct: purchased DiscoverX (KINOMEscan)

AKT3 = target: T32, AKT3 (Homo sapiens, UniProt Q9Y243)
T32 construct: purchased DiscoverX (KINOMEscan)

[5] = target: T33, JAK1(JH1domain-catalytic) (Homo sapiens, UniProt P23458)
T33 construct: JAK1(JH1domain-catalytic); purchased DiscoverX (KINOMEscan)

DCAMKL2 = target: T34, DCAMKL2 (Homo sapiens, UniProt Q8N568)
T34 construct: purchased DiscoverX (KINOMEscan)

AMPK-alpha1 = target: T35, AMPK-alpha1 (Homo sapiens, UniProt Q13131)
T35 construct: purchased DiscoverX (KINOMEscan)

INSRR = target: T36, INSRR (Homo sapiens, UniProt P14616)
T36 construct: purchased DiscoverX (KINOMEscan)

T2 sequence (P29317 24-976): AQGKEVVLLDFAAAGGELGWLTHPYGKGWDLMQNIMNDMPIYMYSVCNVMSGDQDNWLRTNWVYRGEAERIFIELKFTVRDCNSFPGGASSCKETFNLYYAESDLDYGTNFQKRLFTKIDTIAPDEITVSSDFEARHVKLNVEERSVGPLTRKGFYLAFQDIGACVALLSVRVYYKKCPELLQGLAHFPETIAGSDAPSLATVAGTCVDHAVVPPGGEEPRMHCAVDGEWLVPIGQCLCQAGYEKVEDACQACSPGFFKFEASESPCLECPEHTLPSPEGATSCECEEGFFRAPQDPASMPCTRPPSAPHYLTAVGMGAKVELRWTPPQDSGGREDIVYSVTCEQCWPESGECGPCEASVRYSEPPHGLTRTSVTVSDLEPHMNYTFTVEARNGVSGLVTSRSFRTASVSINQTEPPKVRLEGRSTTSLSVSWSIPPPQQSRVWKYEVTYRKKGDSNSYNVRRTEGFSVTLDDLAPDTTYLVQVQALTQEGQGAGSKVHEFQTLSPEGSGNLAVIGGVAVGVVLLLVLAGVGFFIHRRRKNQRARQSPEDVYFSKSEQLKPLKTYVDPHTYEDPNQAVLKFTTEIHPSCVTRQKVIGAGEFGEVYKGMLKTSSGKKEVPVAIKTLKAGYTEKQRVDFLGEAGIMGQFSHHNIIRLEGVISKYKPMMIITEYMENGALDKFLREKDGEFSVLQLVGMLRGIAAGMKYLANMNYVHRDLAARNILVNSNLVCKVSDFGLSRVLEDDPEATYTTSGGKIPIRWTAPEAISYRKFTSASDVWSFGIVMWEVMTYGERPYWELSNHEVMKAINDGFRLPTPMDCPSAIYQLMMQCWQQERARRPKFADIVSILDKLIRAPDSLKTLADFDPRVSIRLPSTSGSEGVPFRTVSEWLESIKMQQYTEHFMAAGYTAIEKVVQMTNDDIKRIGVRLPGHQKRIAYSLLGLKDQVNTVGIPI
T7 sequence (Q8N4C8 whole entry): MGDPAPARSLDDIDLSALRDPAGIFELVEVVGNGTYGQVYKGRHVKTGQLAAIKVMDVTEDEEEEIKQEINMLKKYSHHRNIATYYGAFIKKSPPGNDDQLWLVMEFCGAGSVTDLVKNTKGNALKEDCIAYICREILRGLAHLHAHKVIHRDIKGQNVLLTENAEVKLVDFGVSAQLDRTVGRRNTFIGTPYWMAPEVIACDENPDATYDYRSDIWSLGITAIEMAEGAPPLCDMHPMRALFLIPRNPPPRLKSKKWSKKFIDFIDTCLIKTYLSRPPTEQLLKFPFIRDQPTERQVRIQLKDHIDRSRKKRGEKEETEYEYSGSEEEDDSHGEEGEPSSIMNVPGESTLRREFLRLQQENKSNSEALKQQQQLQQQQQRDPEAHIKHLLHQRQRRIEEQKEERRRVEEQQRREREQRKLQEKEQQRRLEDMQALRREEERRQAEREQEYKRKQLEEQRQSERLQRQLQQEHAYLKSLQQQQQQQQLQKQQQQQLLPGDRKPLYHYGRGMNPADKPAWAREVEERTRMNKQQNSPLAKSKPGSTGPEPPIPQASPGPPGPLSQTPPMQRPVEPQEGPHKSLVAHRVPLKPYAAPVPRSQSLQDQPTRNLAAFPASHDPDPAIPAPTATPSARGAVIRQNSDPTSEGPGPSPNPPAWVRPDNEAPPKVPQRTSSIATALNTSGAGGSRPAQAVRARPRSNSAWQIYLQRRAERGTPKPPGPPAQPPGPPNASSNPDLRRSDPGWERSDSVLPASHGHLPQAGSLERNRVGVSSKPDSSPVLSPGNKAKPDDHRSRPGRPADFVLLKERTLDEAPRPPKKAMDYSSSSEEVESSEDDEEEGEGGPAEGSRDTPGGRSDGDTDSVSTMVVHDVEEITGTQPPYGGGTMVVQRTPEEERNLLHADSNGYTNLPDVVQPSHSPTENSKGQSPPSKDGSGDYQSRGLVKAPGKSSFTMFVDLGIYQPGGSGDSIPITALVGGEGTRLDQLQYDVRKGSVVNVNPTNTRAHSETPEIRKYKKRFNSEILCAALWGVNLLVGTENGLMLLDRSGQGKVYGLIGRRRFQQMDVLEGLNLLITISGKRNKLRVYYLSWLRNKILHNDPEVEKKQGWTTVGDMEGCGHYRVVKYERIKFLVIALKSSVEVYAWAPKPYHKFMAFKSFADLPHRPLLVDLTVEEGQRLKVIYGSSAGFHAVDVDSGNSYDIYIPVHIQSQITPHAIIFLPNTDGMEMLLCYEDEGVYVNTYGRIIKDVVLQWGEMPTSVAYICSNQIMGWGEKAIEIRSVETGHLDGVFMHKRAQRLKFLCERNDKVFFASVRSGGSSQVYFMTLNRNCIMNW
T23 sequence (Q9NRP7 whole entry): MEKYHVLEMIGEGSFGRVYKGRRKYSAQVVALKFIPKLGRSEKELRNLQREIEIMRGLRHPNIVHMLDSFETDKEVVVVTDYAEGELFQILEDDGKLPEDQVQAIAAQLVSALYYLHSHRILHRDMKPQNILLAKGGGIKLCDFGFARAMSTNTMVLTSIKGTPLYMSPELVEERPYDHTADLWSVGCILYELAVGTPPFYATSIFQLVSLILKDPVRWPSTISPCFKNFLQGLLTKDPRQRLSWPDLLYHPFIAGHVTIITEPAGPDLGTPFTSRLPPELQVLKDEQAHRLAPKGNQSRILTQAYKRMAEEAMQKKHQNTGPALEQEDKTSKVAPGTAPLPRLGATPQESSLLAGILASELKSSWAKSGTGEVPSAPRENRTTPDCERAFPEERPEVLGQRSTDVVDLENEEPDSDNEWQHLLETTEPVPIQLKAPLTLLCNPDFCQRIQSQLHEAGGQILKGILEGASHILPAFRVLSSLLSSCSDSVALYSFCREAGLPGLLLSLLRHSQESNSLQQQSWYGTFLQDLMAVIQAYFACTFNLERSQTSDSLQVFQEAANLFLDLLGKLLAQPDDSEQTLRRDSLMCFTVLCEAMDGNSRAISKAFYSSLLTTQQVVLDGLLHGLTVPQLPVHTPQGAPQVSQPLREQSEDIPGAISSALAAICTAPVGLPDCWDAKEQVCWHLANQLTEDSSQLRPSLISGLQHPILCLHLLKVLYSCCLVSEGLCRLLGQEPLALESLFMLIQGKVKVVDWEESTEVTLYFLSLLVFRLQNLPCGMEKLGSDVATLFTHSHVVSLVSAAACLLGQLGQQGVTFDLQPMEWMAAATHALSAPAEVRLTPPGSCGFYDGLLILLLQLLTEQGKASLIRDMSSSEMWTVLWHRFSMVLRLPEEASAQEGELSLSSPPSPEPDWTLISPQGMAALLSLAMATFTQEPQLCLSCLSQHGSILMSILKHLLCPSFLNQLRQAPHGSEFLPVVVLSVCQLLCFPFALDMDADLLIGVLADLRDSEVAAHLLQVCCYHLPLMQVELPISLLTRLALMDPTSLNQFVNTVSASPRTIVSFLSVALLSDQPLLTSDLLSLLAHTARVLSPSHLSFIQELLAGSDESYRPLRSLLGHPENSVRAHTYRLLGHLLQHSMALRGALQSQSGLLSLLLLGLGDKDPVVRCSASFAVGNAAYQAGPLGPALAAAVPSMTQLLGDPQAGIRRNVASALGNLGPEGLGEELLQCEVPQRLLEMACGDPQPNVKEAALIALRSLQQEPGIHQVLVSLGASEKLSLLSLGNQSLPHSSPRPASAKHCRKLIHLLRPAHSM
T15 sequence (Q9BUB5 whole entry): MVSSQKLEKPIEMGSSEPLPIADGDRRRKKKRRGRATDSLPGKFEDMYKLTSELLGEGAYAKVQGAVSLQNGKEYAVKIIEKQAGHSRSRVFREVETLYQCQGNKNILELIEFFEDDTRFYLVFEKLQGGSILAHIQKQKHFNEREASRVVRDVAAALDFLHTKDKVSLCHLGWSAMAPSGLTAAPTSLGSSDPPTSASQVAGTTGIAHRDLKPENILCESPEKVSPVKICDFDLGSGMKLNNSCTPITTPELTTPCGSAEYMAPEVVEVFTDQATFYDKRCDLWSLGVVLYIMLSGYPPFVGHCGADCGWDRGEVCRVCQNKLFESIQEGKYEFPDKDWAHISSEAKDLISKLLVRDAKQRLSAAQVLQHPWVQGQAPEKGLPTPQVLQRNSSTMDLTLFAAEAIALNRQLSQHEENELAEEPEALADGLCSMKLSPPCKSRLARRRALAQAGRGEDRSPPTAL
T8 sequence (P51813 whole entry): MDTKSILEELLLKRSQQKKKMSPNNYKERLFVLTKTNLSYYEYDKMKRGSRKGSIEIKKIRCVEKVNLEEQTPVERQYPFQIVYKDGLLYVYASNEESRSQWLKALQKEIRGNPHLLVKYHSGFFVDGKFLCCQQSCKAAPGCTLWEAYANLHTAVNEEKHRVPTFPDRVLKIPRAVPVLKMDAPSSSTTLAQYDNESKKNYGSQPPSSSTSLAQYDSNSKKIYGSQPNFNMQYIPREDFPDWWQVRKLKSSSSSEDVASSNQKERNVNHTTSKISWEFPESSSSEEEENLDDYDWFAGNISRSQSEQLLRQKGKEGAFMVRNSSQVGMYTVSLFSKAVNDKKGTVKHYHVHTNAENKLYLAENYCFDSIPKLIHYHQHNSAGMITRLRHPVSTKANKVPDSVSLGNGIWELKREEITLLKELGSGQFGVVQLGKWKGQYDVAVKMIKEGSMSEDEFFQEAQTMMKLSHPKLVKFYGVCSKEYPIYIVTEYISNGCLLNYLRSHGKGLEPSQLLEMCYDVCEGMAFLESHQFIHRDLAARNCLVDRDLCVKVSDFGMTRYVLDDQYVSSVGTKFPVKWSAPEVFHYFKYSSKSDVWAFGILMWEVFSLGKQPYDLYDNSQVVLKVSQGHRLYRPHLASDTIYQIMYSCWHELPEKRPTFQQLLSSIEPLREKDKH
T29 sequence (P00533 with tags, fused parts or gaps DEL747-749/A750P limits assumed): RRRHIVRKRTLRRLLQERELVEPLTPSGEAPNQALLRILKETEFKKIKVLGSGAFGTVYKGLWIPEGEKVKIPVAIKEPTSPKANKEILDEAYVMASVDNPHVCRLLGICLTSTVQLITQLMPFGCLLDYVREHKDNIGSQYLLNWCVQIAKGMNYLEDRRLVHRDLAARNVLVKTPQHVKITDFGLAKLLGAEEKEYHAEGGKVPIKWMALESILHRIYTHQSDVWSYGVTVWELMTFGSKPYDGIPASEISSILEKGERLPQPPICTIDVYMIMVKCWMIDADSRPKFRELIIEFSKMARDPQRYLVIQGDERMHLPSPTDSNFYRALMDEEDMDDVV

With `COc1cc(/C=C2\N=C(N)NC2=O)ccc1O` [Polyandrocarpamine A] as the compound, how does the Score (DMPK2) read?
The Score was 99.

And the Score (EPHA2)?
Its Score is 100.

What about the Score (EGFR(L858R)) of the same compound?
The Score was 93.

What about the Score (EGFR(G719C)) of the same compound?
Its Score is 95.

What about the Score (MARK2) of the same compound?
Its Score is 100.

What about the Score (TNNI3K) of the same compound?
The Score was 98.

And the Score (MINK)?
Its Score is 100.

What about the Score (BMX) of the same compound?
Its Score is 100.

And the Score (FYN)?
Its Score is 100.

What about the Score (FGR) of the same compound?
The Score was 100.

What about the Score (MAPKAPK2) of the same compound?
Its Score is 100.

And the Score (ERBB2)?
Its Score is 100.

And the Score [1]?
The Score was 67.

What about the Score (ASK1) of the same compound?
Its Score is 100.

And the Score (MKNK1)?
The Score was 63.

And the Score (MERTK)?
Its Score is 100.

And the Score (KIT(L576P))?
The Score was 99.

And the Score [2]?
The Score was 85.

What about the Score [3] of the same compound?
The Score was 86.

And the Score (BMPR1A)?
The Score was 100.

And the Score (ERBB3)?
Its Score is 100.

And the Score (SIK2)?
Its Score is 94.

And the Score (STK36)?
The Score was 96.

And the Score (ERK1)?
Its Score is 100.

And the Score (TESK1)?
The Score was 100.

And the Score (MEK4)?
The Score was 100.

And the Score (DMPK)?
Its Score is 100.

What about the Score (ABL1-phosphorylated) of the same compound?
The Score was 100.

What about the Score [4] of the same compound?
Its Score is 100.

And the Score (MAP4K4)?
The Score was 98.

And the Score (FLT3(D835Y))?
Its Score is 100.

What about the Score (AKT3) of the same compound?
The Score was 100.

And the Score [5]?
The Score was 72.

What about the Score (DCAMKL2) of the same compound?
The Score was 100.

What about the Score (AMPK-alpha1) of the same compound?
Its Score is 100.

What about the Score (INSRR) of the same compound?
The Score was 81.
